{
  "source": "patent US8597904B2",
  "about": "“Pharmaceutical compositions for the treatment of conditions responsive to proteasome inhibition” (priority 2007, dated 2013)",
  "key": {"SK-N-SH cells": {"test_system": "SK-N-SH cells", "assay": "Cytox-Glo cytotoxicity assay", "type": "cell-based, human", "conditions": "for cytotoxicity: 0.25 μM GlbA or 25 μM SylA, 48 hours; for cytotoxicity in the presence of 3-MA: pre-treated with 3-MA", "experimental": "(§1) Determination of potential cytotoxic effects by GlbA and/or […] was carried out by using the Cytox-Glo cytotoxicity assay, which measures “dead cell proteases” from cells that have lost membrane integrity. Briefly, cells were treated with a single concentration of compound for 48 hours in a final volume of 100 μl, after which 50 μl of AAF-Glo luminogenic peptide substrate (alanyl-alanyl-phenylalanyl-aminoluciferin) was added to each well and incubated for 15 min at room temperature. The luminescence was measured by a Dynex MLX luminometer to give a reading of cells with damaged membranes. Next, 50 μl of digitonin was added to each well and the samples incubated for 15 minutes at room temperature. Luminescence was measured a second time to determine total cell number. Controls included cells with vehicle only, media, and media with compound.\n(§2) SK-N-SH cells were treated with 0.25 μM GlbA or 25 μM SylA and SKOV3 cells were treated with 1.0 μM GlbA or 25 μM SylA. As illustrated in FIGS. 16A and 16B, control cells (treated with DMSO and H2O representing GlbA and SylA controls, respectively) were viable and no cytotoxicity was detected.\nTo determine if autophagy plays a role in GlbA/SylA-induced cell death, levels of cytotoxicity in cells pre-treated with 3-methyladenine (3-MA), an established autophagy inhibitor, were measured using the assay described in Example 12."}, "[1]": {"target": "T1, human erythrocyte 20S proteasomes, chymotrypsin-like activity (Homo sapiens, UniProt P28074)", "T1 construct": "which contains human erythrocyte 20S proteasomes; purchased BIOMOL International AK-740; host or cells: human erythrocytes", "type": "biochemical", "conditions": "for inhibition of chymotrypsin-like activity: 37° C., 100 μM Suc-LLVY-AMC", "experimental": "A 100 μl reaction volume contained 2 μg/ml 20S proteasome, 100 μM substrate, and the desired concentrations of syringolin A in dilution buffer (50 mM Tris-HCl, pH 7.5, 25 mM KCl, 10 mM NaCl, 1 mM MgCl2). Epoximicin and MG132 (BIOMOL® International) were used as test inhibitors. The release of free AMC (7-amino-4-methylcoumarin) at 37° C. was monitored with an MWGt Sirius HT fluorescence microplate reader (BIO-TEK® Instruments) equipped with a 360 nm excitation and a 460 nm emission filter. Proteolytic activities were measured as the increase in relative fluorescence units (RFU) over time (FIG. 7A-C). […] The initial velocities (vi) were determined from the time derivative of these curves and plotted versus the corresponding inhibitor concentration ([I]). […] Using SigmaPlot, the data were fitted to the hyperbolic equation vi=c+[v0/(Ki′+[I])], where v0 is the velocity of the control. […] The rate of covalent inhibition (kassociation), which equals kobs/[I] was calculated over the range of inhibitor concentrations given in parentheses in FIG. 7D. Values in FIG. 7D represent means±standard deviation.\nThe fluorogenic substrates Suc-LLVY-AMC, Boc-LRR-AMC, and Z-LLE-AMC (BIOMOL® International) were used to monitor chymotrypsin-like, trypsin-like, and caspase-like activities, respectively. […] The release of free AMC (7-amino-4-methylcoumarin) at 37° C. was monitored with an MWGt Sirius HT fluorescence microplate reader (BIO-TEK® Instruments) equipped with a 360 nm excitation and a 460 nm emission filter."}, "[2]": {"test_system": "poly (ADP-ribose) polymerase (PARP)", "assay": "Western blot of PARP cleavage in SK-N-SH cells", "type": "cell-based, human", "experimental": "The induction of an apoptotic response in cancer cells by the addition of syringolin A was verified by monitoring the cleavage of poly (ADP-ribose) polymerase (PARP), a common response during apoptosis. SK-N-SH cells were cultured in the presence or absence of 20 μM syringolin A for 0, 24 and 48 hours, and cell lysates were then generated as described in Example 4 and probed for the presence of PARP by Western blotting using rabbit polyclonal anti-PARP (#9542) (diluted 1:1000) and the HRP-linked anti-rabbit secondary antibody described in Example 4. The results were representative of four independent experiments. […] The treatment of cells for 48 hours further increased the levels of cleaved PARP, whereas noncleaved PARP disappeared. In a similar manner, syringolin A induced PARP cleavage in SKOV3 cells, but noncleaved PARP was still detected 48 hours after treatment (FIG. 5B).\nThe role of glidobactin A (GlbA) in apoptosis and its correlation with autophagy has not previously been examined. Therefore, in a series of experiments, cell lysates of SK-N-SH cells were treated with GlbA in the presence and absence of the autophagy inhibitor 3-methyladenine (3-MA) and probed for poly ADP-ribose polymerase (PARP). The cleavage of PARP produces a smaller 89 kDa fragment which is indicative of late apoptosis."}, "SKOV3 cells": {"test_system": "SKOV3 cells", "assay": "Cytox-Glo cytotoxicity assay", "type": "cell-based, human", "conditions": "SKOV3, 1.0 μM GlbA or 25 μM SylA, 48 hours", "experimental": "as §1, §2"}, "TH-MYCN transgenic mouse": {"test_system": "TH-MYCN transgenic mouse", "assay": "chemoprevention in TH-MYCN mouse model of human neuroblastoma", "type": "in vivo", "conditions": "homozygous mice, treatment from week 4 or 5, vs untreated mice", "from_the_text": "The TH-MYCN transgenic mouse is a well-established neuroblastoma mouse model (Hansfored, et al. 2004. PNAS 101(34):12664-12669; Weiss, et al. 2007. Cancer Res 67(19):9435-9442; Weiss, et al. 2000. Cancer Res 6″2483-2487, each of which is incorporated herein by reference in its entirety). The tumors are caused by targeted expression of MYCN to the neural crest under the control of the rat tyrosine hydroxylase promoter, where the mice develop a tumor phenotype that closely resembles the human disease. The tumors in this strain of mouse generally develop in the abdominal and thoracic areas. TH-MYCN breeder pairs are supplied as hemizygote (129×1/SvJ-Tg(TH-MYCN)41Waw) and a wild type mate (129×1/SvJ).\nTreatment regimen is similar to that described in Example 16. Test compounds are administered to homozygous mice at a dose that is developed based upon the results of the initial dose and toxicity study (Example 15). Two to four doses per compound are administered by i.p. and/or i.v. methods into homozygous mice at week 4 or 5 (in advance of tumor development, which occurs closer to week 7). Vehicle is delivered as a control. Further doses are administered every 72 hours thereafter for 3 to 6 weeks. Between eight to twelve mice are tested in the study for administration of each compound. […] At the conclusion of the study, the mice are sacrificed and tumor size and number of tumors are assessed."}},
  "data": [
    {"smiles": "CC(C)[C@H](NC(=O)N[C@H](C(=O)N[C@H]1/C=C/CCNC(=O)/C=C/[C@H](C(C)C)NC1=O)C(C)C)C(=O)O", "note": "[syringolin A]", "values": [
      {"measurement": "cytotoxicity", "setting": "SK-N-SH cells", "value": "~30", "unit": "%"},
      {"measurement": "cytotoxicity in the presence of 3-MA", "setting": "SK-N-SH cells", "value": "significantly reduced"},
      {"measurement": "inhibition of chymotrypsin-like activity", "setting": "[1]", "value": "inhibited"},
      {"measurement": "mode of proteasome inhibition (reaction velocity over time)", "setting": "[1]; FIG. 7A", "value": "irreversible proteasome inhibitor"},
      {"measurement": "PARP cleavage", "setting": "[2]; 20 μM, 24 and 48 hours", "value": "induces apoptosis-associated PARP cleavage"},
      {"measurement": "cytotoxicity", "setting": "SKOV3 cells", "value": "relatively low levels of cytotoxicity"},
      {"measurement": "tumor formation", "setting": "TH-MYCN transgenic mouse", "value": "fewer or no tumors"}
    ]},
    {"smiles": "CCCCCCC/C=C/C=C/C(=O)N[C@H](C(=O)N[C@H]1C[C@@H](O)CCNC(=O)/C=C/[C@H](C)NC1=O)[C@@H](C)O", "note": "[glidobactin A]", "values": [
      {"measurement": "cytotoxicity", "setting": "SK-N-SH cells", "value": "about 40%"},
      {"measurement": "cytotoxicity in the presence of 3-MA", "setting": "SK-N-SH cells", "value": "significantly reduced"},
      {"measurement": "inhibition of chymotrypsin-like activity", "setting": "[1]", "value": "blocked the chymotrypsin-like activity irreversibly at low concentrations"},
      {"measurement": "PARP cleavage", "setting": "[2]; Example 15, single agent", "value": "PARP cleavage was observed"},
      {"measurement": "GlbA-induced PARP cleavage in presence of 3-MA", "setting": "[2]; GlbA with 3-MA", "value": "slightly reduced this effect"},
      {"measurement": "cytotoxicity", "setting": "SKOV3 cells", "value": "relatively low levels of cytotoxicity"},
      {"measurement": "tumor formation", "setting": "TH-MYCN transgenic mouse", "value": "fewer or no tumors"}
    ]}
  ]
}
